Measurements from patent publication US20230097883A1, “ERGOTHIONEINE PET COMPOUNDS AND METHODS OF USE THEREOF” (VANDERBILT UNIVERSITY, priority 2021, published 2023).

How the values were obtained:
Type in all cases: in vivo, mouse
glucose metabolism = assay: [18F]FDG PET imaging of glucose metabolism after ERGO treatment; conditions: 6-month-old 5XFAD, ERGO 6 doses each 50 mg/Kg during 2 weeks, versus non-treated 5XFAD, n=3
Protocol: The brain consumes a significant amount of glucose, approximately 25% of the body's glucose. It is well known that glucose metabolism is diminished in the early onset of AD. Therefore, [^18F]FDG PET imaging to assess glucose levels could be used for AD diagnosis. For this purpose, three cohorts of age-matched mice (6-month-old, n=3 for each cohort), including WT, non-treated 5XFAD and ERGO-treated 5XFAD (6 doses, each 50 mg/Kg during the course of 2 weeks) were studied. Afterward, animals were injected with [^18F]FDG probe (15 MBq, 100 μL/mouse) and underwent […] dynamic PET scans and CT scans.
The dynamic acquisition was divided into twelve 5-second frames, four 60-second frames, five 120-second frames, three 5-min frames, and six 10-min scans. The data from all possible lines of response (LOR) were saved in the list mode raw data format. The raw data were then binned into 3D sinograms with a span of 3 and ring difference of 47. The images were reconstructed into transaxial slices (128×128×159) with voxel sizes of 0.0815×0.0815×0.0796 cm^3, using the MAP algorithm with 16 subsets, 4 iterations, and a beta of 0.0468. For anatomical co-registration, immediately following the PET scans, the mice received a CT scan in a NanoSPECT/CT (Mediso, Wash. D.C.) at an X-ray beam intensity of 90 mAs and x-ray peak voltage of 45 kVp. […]

5XFAD mice = assay: Rotarod after ERGO treatment; conditions: ERGO-treated 5XFAD versus non-treated 5XFAD and WT, three days of testing
Protocol: To address our primary question whether longitudinal consumption of ERGO as a potent antioxidant benefit the brain, three cohorts of animals (n=12 non-treated WT control, n=12 non-treated 5XFAD, and n=18 ERGO-treated 5XFAD) were used (FIG. 3.2A). Starting at the age of 8 weeks, the animals were treated with high doses of ERGO solution (25-50 mg/Kg) formulated in double distilled (dd) water via oral gavage three times a week over the course of eight weeks. To reduce bias in the behavioral experiments with regard to the potential stress during gavage treatment, non-treated animals underwent the identical gavage process with the vehicle, water, only. The efficacy of the therapy was evaluated by behavioral testing, followed by three different non-invasive PET imaging sessions to assess biomarkers related to AD pathology. In addition to assessing Abeta levels and glucose metabolism using the [^11C]PIB and [^18F]FDG probes, respectively; we also tested for the first time whether oxidative stress could be used as an indicator of response to therapy using the [^11C]ERGO PET radioligand. Finally, animals were euthanized, and the brains were collected for immunohistochemical analysis. […]
Neuromuscular ability and motor learning were assessed using a standard rotarod (Ugo Basile). […] Time to fall was recorded automatically when mice fell from the rod onto a base plate.

[1] = 90-minute dynamic PET scanning of [11C]ERGO biodistribution in the brain of 5XFAD mice
Protocol: The dynamic acquisition was divided into twelve 5 sec frames, four 60 sec frames, five 120 sec frames, three 5 min frames, and six 10 min scans. The data from all possible lines of response (LOR) were saved in the list mode raw data format. The raw data were then binned into 3D sinograms with a span of 3 and ring difference of 47. The images were reconstructed into transaxial slices (128×128×159) with voxel sizes of 0.0815×0.0815×0.0796 cm^3, using the MAP algorithm with 16 subsets, 4 iterations, and a beta of 0.0468. For anatomical co-registration, immediately following the PET scans, the mice received a CT scan in a NanoSPECT/CT (Mediso, Wash. D.C.) at an X-ray beam intensity of 90 mAs and x-ray peak voltage of 45 kVp. The CT images were reconstructed into 170×170×186 voxels at a voxel size of 0.4×0.4×0.4 mm^3. The PET/CT images were uploaded into Amide software (www.sourceforge.com), co-registered to an MRI template made in-house, and volumetric regions-of-interest were drawn around the cortex, hippocampus, striatum, thalamus, and cerebellum in addition to the whole brain. The PET images were normalized to the injected dose, and the time-activity-curves (TACs) of the mean activity within the ROIs were estimated for the entire duration of the scans.
To test the distribution of ERGO non-invasively in vivo, approximately 37 MBq/0.1 mL of [^11C]ERGO probe was given to anesthetized 5XFAD mice (8-month-old, n=4) in single bolus intravenous (I.V.) injection via the lateral tail vein. The administration of the probe was simultaneous with the start of a 90-minute dynamic PET imaging, followed by subsequent CT scan. The PET images were normalized to the injected dose, and the time-activity-curves (TACs) of the mean activity within the ROIs were estimated for the entire duration of the scans. Within 5 min post I.V. injection, [^11C]ERGO can be detected in the brain parenchyma (FIG. 1.5A, top panel). […] Using an age-matched mouse brain template, the positron-emitted signal at different brain regions was quantified using AMIDE software. […]

| SMILES | glucose levels in the brain ([18F]FDG uptake, SUV) (glucose metabolism) | rotarod latency to fall, group differences (5XFAD mice) | time post I.V. injection at which the probe can be detected in the brain parenchyma ([1]; 8-month-old, approx. 37 MBq/0.1 mL single I.V. bolus) | retention of the probe in the brain ([1]; 30 min post radiotracer injection) | regional distribution of the probe in the brain (PET signal) ([1]; approx. 37 MBq/0.1 mL I.V., 90-min dynamic PET) |
| --- | --- | --- | --- | --- | --- |
| C[N+](C)(C)[C@@H](Cc1c[nH]c(=S)[nH]1)C(=O)[O-] [ERGO, L-ergothioneine] | significantly elevated | no differences among the groups | – | – | – |
| C[N+](C)([11CH3])[C@@H](Cc1c[nH]c(=S)[nH]1)C(=O)[O-] [[^11C]ERGO] | – | – | ≤ 5 min | still remained in the brain | high concentration in the cerebellum and cortex |
